Data as given in patent publication US20260042764A1, “COMPOSITIONS AND METHODS FOR INHIBITION OF KRAS” (TheRas, Inc., priority 2022, published 2026).

Each molecule was assayed against T1, Avi-KRAS WT (2-169) GTP/RAF1 RBD-3xFLAG (51-131) (Homo sapiens, UniProt P01116) (assay: Raf1-KRAS WT-GTP disruption HTRF assay (Biological Example 3)). Settings: KRAS WT, GTP-loaded.
T1 construct: Avi-KRAS WT (2-169)
T1 sequence (P01116 2-169 isoform P01116-2): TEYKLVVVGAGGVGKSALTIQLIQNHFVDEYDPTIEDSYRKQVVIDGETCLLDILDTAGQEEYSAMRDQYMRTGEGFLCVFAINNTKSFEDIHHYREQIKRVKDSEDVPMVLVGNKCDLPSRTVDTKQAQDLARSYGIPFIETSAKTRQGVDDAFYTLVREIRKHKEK
Assay type: binding
In short: (§1)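 HTRF PPI read-out (ex 320 nm, em 615 nm) after 1 h RT incubation with shaking; data as % activity vs DMSO (100%), IC50 from curve fit. Complex 50 nM, RBD reagent 75 nM; compound 30-0.005 μM, 3-fold.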
`CCN(c1nc(OC[C@@]23CCCN2C[C@H](F)C3)nc2c(F)c(-c3ccc(F)c4sc(N)c(C#N)c34)c(C(F)(F)F)cc12)[C@@H]1CC[C@H](C(=O)N(C)C)C1` [Compound 959] was tested, and the IC50 was 1 to 10 µM.
In the case of `CCN(c1nc(OCC23CCCN2CC(F)C3)nc2c(F)c(-c3ccc(F)c4sc(N)c(C#N)c34)c(C(F)(F)F)cc12)C1CCN(C(=O)c2cnc(C#N)s2)C1` (stereo not drawn) [Compound 960], the IC50 is reported as 1 to 10 µM.
`CN(c1nc(OCC23CCCN2CC(F)C3)nc2c(F)c(-c3ccc(F)c4sc(N)c(C#N)c34)c(C(F)(F)F)cc12)C1CCc2ccncc21` (stereo not drawn) [Compound 961] was tested, and the IC50 was greater than 10 µM.
In the case of `CN(c1nc(OCC23CCCN2CC(F)C3)nc2c(F)c(-c3ccc(F)c4sc(N)c(C#N)c34)c(C(F)(F)F)cc12)C1CCc2ccncc21` (stereo not drawn) [Compound 962], the IC50 is reported as 1 to 10 µM.
Molecule `CCN(c1nc(OC[C@@]23CCCN2C[C@H](F)C3)nc2c(F)c(-c3ccc(F)c4sc(N)c(C#N)c34)c(C(F)(F)F)cc12)[C@@H]1CCN(c2cccn(C)c2=O)C1` [Compound 964] has an IC50 of 1 to 10 µM.
`C[C@@H](c1cccnc1)N(C)c1nc(OC[C@@]23CCCN2C[C@H](F)C3)nc2c(F)c(-c3ccc(F)c4sc(N)c(C#N)c34)c(C(F)(F)F)cc12` [Compound 969] showed an IC50 of 1 to 10 µM.

Same assay, conditions: KRAS WT-GTP / RAF1 RBD HTRF
`CCN(c1nc(OC[C@@]23CCCN2C[C@H](F)C3)nc2c(F)c(-c3ccc(F)c4sc(N)c(C#N)c34)c(C(F)(F)F)cc12)[C@H]1CCN(c2nccs2)C1` [Compound 973] was tested, and the IC50 was 1 to 10 µM.

The molecules below were run against T2, Avi-KRAS G12C (2-169) GTP/RAF1 RBD-3xFLAG (51-131) (Homo sapiens, UniProt P01116, G12C) (assay: Raf1-KRAS G12C-GTP disruption HTRF assay (Biological Example 3)). Settings: KRAS G12C, GTP-loaded.
T2 construct: Avi-KRAS G12C (2-169)
T2 sequence (P01116 2-169 isoform P01116-2 G12C): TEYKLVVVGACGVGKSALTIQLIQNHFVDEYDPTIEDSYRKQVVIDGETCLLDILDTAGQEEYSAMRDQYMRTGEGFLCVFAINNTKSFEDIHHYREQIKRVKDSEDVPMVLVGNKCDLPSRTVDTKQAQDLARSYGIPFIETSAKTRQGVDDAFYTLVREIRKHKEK
Assay type: binding
In short: as §1
`CCN(c1nc(OC[C@@]23CCCN2C[C@H](F)C3)nc2c(F)c(-c3ccc(F)c4sc(N)c(C#N)c34)c(C(F)(F)F)cc12)[C@@H]1CC[C@H](C(=O)N(C)C)C1` [Compound 959] was tested, and the IC50 was 1 to 10 µM.
With `CCN(c1nc(OCC23CCCN2CC(F)C3)nc2c(F)c(-c3ccc(F)c4sc(N)c(C#N)c34)c(C(F)(F)F)cc12)C1CCN(C(=O)c2cnc(C#N)s2)C1` (stereo not drawn) [Compound 960] the IC50 was 0.1 to 1 µM.
For `CN(c1nc(OCC23CCCN2CC(F)C3)nc2c(F)c(-c3ccc(F)c4sc(N)c(C#N)c34)c(C(F)(F)F)cc12)C1CCc2ccncc21` (stereo not drawn) [Compound 961], the IC50 was greater than 10 µM.
In the case of `CN(c1nc(OCC23CCCN2CC(F)C3)nc2c(F)c(-c3ccc(F)c4sc(N)c(C#N)c34)c(C(F)(F)F)cc12)C1CCc2ccncc21` (stereo not drawn) [Compound 962], the IC50 is reported as greater than 10 µM.
`CCN(c1nc(OC[C@@]23CCCN2C[C@H](F)C3)nc2c(F)c(-c3ccc(F)c4sc(N)c(C#N)c34)c(C(F)(F)F)cc12)[C@@H]1CCN(c2cccn(C)c2=O)C1` [Compound 964] showed an IC50 of 1 to 10 µM.
`C[C@@H](c1cccnc1)N(C)c1nc(OC[C@@]23CCCN2C[C@H](F)C3)nc2c(F)c(-c3ccc(F)c4sc(N)c(C#N)c34)c(C(F)(F)F)cc12` [Compound 969] showed an IC50 of 1 to 10 µM.

Same assay, conditions: KRAS G12C-GTP / RAF1 RBD HTRF
Molecule `CCN(c1nc(OC[C@@]23CCCN2C[C@H](F)C3)nc2c(F)c(-c3ccc(F)c4sc(N)c(C#N)c34)c(C(F)(F)F)cc12)[C@H]1CCN(c2nccs2)C1` [Compound 973] has an IC50 of 0.1 to 1 µM.

What follows are molecules tested against T3, Avi-KRAS G12D (2-169) GTP/RAF1 RBD-3xFLAG (51-131) (Homo sapiens, UniProt P01116, G12D) (assay: Raf1-KRAS G12D-GTP disruption HTRF assay (Biological Example 3)). Settings: KRAS G12D, GTP-loaded.
T3 construct: Avi-KRAS G12D (2-169)
T3 sequence (P01116 2-169 isoform P01116-2 G12D): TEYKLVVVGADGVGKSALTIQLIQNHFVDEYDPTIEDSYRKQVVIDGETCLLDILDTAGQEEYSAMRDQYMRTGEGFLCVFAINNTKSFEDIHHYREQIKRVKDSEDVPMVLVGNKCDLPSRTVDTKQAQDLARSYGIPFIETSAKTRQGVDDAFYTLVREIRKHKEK
Assay type: binding
In short: as §1
Molecule `CCN(c1nc(OC[C@@]23CCCN2C[C@H](F)C3)nc2c(F)c(-c3ccc(F)c4sc(N)c(C#N)c34)c(C(F)(F)F)cc12)[C@@H]1CC[C@H](C(=O)N(C)C)C1` [Compound 959] has an IC50 of 1 to 10 µM.
With `CCN(c1nc(OCC23CCCN2CC(F)C3)nc2c(F)c(-c3ccc(F)c4sc(N)c(C#N)c34)c(C(F)(F)F)cc12)C1CCN(C(=O)c2cnc(C#N)s2)C1` (stereo not drawn) [Compound 960] the IC50 was 0.1 to 1 µM.
`CN(c1nc(OCC23CCCN2CC(F)C3)nc2c(F)c(-c3ccc(F)c4sc(N)c(C#N)c34)c(C(F)(F)F)cc12)C1CCc2ccncc21` (stereo not drawn) [Compound 961] was tested, and the IC50 was 1 to 10 µM.
Molecule `CN(c1nc(OCC23CCCN2CC(F)C3)nc2c(F)c(-c3ccc(F)c4sc(N)c(C#N)c34)c(C(F)(F)F)cc12)C1CCc2ccncc21` (stereo not drawn) [Compound 962] has an IC50 of 1 to 10 µM.
Molecule `CCN(c1nc(OC[C@@]23CCCN2C[C@H](F)C3)nc2c(F)c(-c3ccc(F)c4sc(N)c(C#N)c34)c(C(F)(F)F)cc12)[C@@H]1CCN(c2cccn(C)c2=O)C1` [Compound 964] has an IC50 of 1 to 10 µM.
`C[C@@H](c1cccnc1)N(C)c1nc(OC[C@@]23CCCN2C[C@H](F)C3)nc2c(F)c(-c3ccc(F)c4sc(N)c(C#N)c34)c(C(F)(F)F)cc12` [Compound 969] was tested, and the IC50 was 1 to 10 µM.

Same assay, conditions: KRAS G12D-GTP / RAF1 RBD HTRF
Molecule `CCN(c1nc(OC[C@@]23CCCN2C[C@H](F)C3)nc2c(F)c(-c3ccc(F)c4sc(N)c(C#N)c34)c(C(F)(F)F)cc12)[C@H]1CCN(c2nccs2)C1` [Compound 973] has an IC50 of 0.1 to 1 µM.

Each molecule was assayed against T4, Avi-KRAS G12V (2-169) GTP/RAF1 RBD-3xFLAG (51-131) (Homo sapiens, UniProt P01116, G12V) (assay: Raf1-KRAS G12V-GTP disruption HTRF assay (Biological Example 3)). Settings: KRAS G12V, GTP-loaded.
T4 construct: Avi-KRAS G12V (2-169)
T4 sequence (P01116 2-169 isoform P01116-2 G12V): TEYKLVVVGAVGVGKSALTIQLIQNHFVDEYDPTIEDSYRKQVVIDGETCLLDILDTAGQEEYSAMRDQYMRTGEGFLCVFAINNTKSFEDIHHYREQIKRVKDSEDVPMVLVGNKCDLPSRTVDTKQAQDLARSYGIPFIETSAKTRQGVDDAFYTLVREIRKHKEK
Assay type: binding
In short: as §1
With `CCN(c1nc(OC[C@@]23CCCN2C[C@H](F)C3)nc2c(F)c(-c3ccc(F)c4sc(N)c(C#N)c34)c(C(F)(F)F)cc12)[C@@H]1CC[C@H](C(=O)N(C)C)C1` [Compound 959] the IC50 was 1 to 10 µM.
Molecule `CCN(c1nc(OCC23CCCN2CC(F)C3)nc2c(F)c(-c3ccc(F)c4sc(N)c(C#N)c34)c(C(F)(F)F)cc12)C1CCN(C(=O)c2cnc(C#N)s2)C1` (stereo not drawn) [Compound 960] has an IC50 of 0.1 to 1 µM.
`CN(c1nc(OCC23CCCN2CC(F)C3)nc2c(F)c(-c3ccc(F)c4sc(N)c(C#N)c34)c(C(F)(F)F)cc12)C1CCc2ccncc21` (stereo not drawn) [Compound 961] was tested, and the IC50 was 1 to 10 µM.
`CN(c1nc(OCC23CCCN2CC(F)C3)nc2c(F)c(-c3ccc(F)c4sc(N)c(C#N)c34)c(C(F)(F)F)cc12)C1CCc2ccncc21` (stereo not drawn) [Compound 962] was tested, and the IC50 was greater than 10 µM.
`CCN(c1nc(OC[C@@]23CCCN2C[C@H](F)C3)nc2c(F)c(-c3ccc(F)c4sc(N)c(C#N)c34)c(C(F)(F)F)cc12)[C@@H]1CCN(c2cccn(C)c2=O)C1` [Compound 964] gave an IC50 of 1 to 10 µM.
Molecule `C[C@@H](c1cccnc1)N(C)c1nc(OC[C@@]23CCCN2C[C@H](F)C3)nc2c(F)c(-c3ccc(F)c4sc(N)c(C#N)c34)c(C(F)(F)F)cc12` [Compound 969] has an IC50 of 1 to 10 µM.

Same assay, conditions: KRAS G12V-GTP / RAF1 RBD HTRF
In the case of `CCN(c1nc(OC[C@@]23CCCN2C[C@H](F)C3)nc2c(F)c(-c3ccc(F)c4sc(N)c(C#N)c34)c(C(F)(F)F)cc12)[C@H]1CCN(c2nccs2)C1` [Compound 973], the IC50 is reported as 0.1 to 1 µM.

What follows are molecules tested on SW620 cells (KRAS G12V) (assay: Cell-based pERK HTRF assay in SW620 cell (Biological Example 4)). Settings: Homo sapiens, SW-620, SW620 (KRAS G12V) cells.
In short: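 SW620 cells were treated for 4 h with compound in a 9-point half-log series from 1 μM top (0.25% DMSO), then lysed. Phospho-ERK was detected by HTRF with d2 and Eu cryptate antibodies after 4–24 h at room temperature, read at 615 nm emission.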
With `CCN(c1nc(OC[C@@]23CCCN2C[C@H](F)C3)nc2c(F)c(-c3ccc(F)c4sc(N)c(C#N)c34)c(C(F)(F)F)cc12)[C@@H]1CC[C@H](C(=O)N(C)C)C1` [Compound 959] the IC50 was less than 0.1 µM.
With `CCN(c1nc(OC[C@@]23CCCN2C[C@H](F)C3)nc2c(F)c(-c3ccc(F)c4sc(N)c(C#N)c34)c(C(F)(F)F)cc12)[C@@H]1CCN(c2cccn(C)c2=O)C1` [Compound 964] the IC50 was less than 0.1 µM.
Work on `C[C@@H](c1cccnc1)N(C)c1nc(OC[C@@]23CCCN2C[C@H](F)C3)nc2c(F)c(-c3ccc(F)c4sc(N)c(C#N)c34)c(C(F)(F)F)cc12` [Compound 969] yielded an IC50 of less than 0.1 µM.

Same assay, conditions: Homo sapiens, SW-620, SW620 cells (KRAS G12V)
For `CCN(c1nc(OC[C@@]23CCCN2C[C@H](F)C3)nc2c(F)c(-c3ccc(F)c4sc(N)c(C#N)c34)c(C(F)(F)F)cc12)[C@H]1CCN(c2nccs2)C1` [Compound 973], the IC50 was less than 0.1 µM.

Same assay, conditions: SW620 (KRAS G12V) cells
Work on `CCN(c1nc(OCC23CCCN2CC(F)C3)nc2c(F)c(-c3ccc(F)c4sc(N)c(C#N)c34)c(C(F)(F)F)cc12)C1CCN(C(=O)c2cnc(C#N)s2)C1` (stereo not drawn) [Compound 960] yielded an IC50 of less than 0.1 µM.
`CN(c1nc(OCC23CCCN2CC(F)C3)nc2c(F)c(-c3ccc(F)c4sc(N)c(C#N)c34)c(C(F)(F)F)cc12)C1CCc2ccncc21` (stereo not drawn) [Compound 961] gave an IC50 of less than 0.1 µM.
With `CN(c1nc(OCC23CCCN2CC(F)C3)nc2c(F)c(-c3ccc(F)c4sc(N)c(C#N)c34)c(C(F)(F)F)cc12)C1CCc2ccncc21` (stereo not drawn) [Compound 962] the IC50 was less than 0.1 µM.

The molecules below were run on GP2d cells (KRAS G12D) (assay: Cell-based pERK HTRF assay in GP2d cell (Biological Example 2)). Settings: GP2d (KRAS G12D) cells.
In short: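 Phospho-ERK is measured by HTRF following a 60 min compound exposure at 0.25% DMSO, with a 9-point half-log curve topping at 1 μM or 100 nM.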
`CCN(c1nc(OCC23CCCN2CC(F)C3)nc2c(F)c(-c3ccc(F)c4sc(N)c(C#N)c34)c(C(F)(F)F)cc12)C1CCN(C(=O)c2cnc(C#N)s2)C1` (stereo not drawn) [Compound 960] was tested, and the IC50 was less than 0.1 µM.
With `CN(c1nc(OCC23CCCN2CC(F)C3)nc2c(F)c(-c3ccc(F)c4sc(N)c(C#N)c34)c(C(F)(F)F)cc12)C1CCc2ccncc21` (stereo not drawn) [Compound 961] the IC50 was less than 0.1 µM.
`CN(c1nc(OCC23CCCN2CC(F)C3)nc2c(F)c(-c3ccc(F)c4sc(N)c(C#N)c34)c(C(F)(F)F)cc12)C1CCc2ccncc21` (stereo not drawn) [Compound 962] gave an IC50 of less than 0.1 µM.

Same assay, conditions: GP2d, GP2d (KRAS G12D) cells
`CCN(c1nc(OC[C@@]23CCCN2C[C@H](F)C3)nc2c(F)c(-c3ccc(F)c4sc(N)c(C#N)c34)c(C(F)(F)F)cc12)[C@@H]1CC[C@H](C(=O)N(C)C)C1` [Compound 959] showed an IC50 of less than 0.1 µM.
`CCN(c1nc(OC[C@@]23CCCN2C[C@H](F)C3)nc2c(F)c(-c3ccc(F)c4sc(N)c(C#N)c34)c(C(F)(F)F)cc12)[C@@H]1CCN(c2cccn(C)c2=O)C1` [Compound 964] showed an IC50 of less than 0.1 µM.
`C[C@@H](c1cccnc1)N(C)c1nc(OC[C@@]23CCCN2C[C@H](F)C3)nc2c(F)c(-c3ccc(F)c4sc(N)c(C#N)c34)c(C(F)(F)F)cc12` [Compound 969] was tested, and the IC50 was less than 0.1 µM.

Same assay, conditions: GP2d, GP2d cells (KRAS G12D)
`CCN(c1nc(OC[C@@]23CCCN2C[C@H](F)C3)nc2c(F)c(-c3ccc(F)c4sc(N)c(C#N)c34)c(C(F)(F)F)cc12)[C@H]1CCN(c2nccs2)C1` [Compound 973] was tested, and the IC50 was less than 0.1 µM.
